We go through three molecules from patent US20140171415A1, “FUNNY CURRENT (IF) INHIBITORS FOR USE IN A METHOD OF TREATING AND PREVENTING HEART DISEASE IN CANINE” (Boehringer Ingelheim Vetmedica GmbH, priority 2012, published 2014).

In data set [1] the test system is Ih channel. The settings on record: literature: Neuroscience 1994 (zatebradine), British Journal of Pharmacology 1998 (cilobradine); cited from earlier work.
The subject of data set [2] is conscious, chronically instrumented dogs. Put plainly: Hemodynamic action in conscious, chronically instrumented dogs. The class given is in vivo, dog. The conditions noted are these: 2.5 mg/kg orally. The source says: Hyodynamic Action in Conscious, Chronically Instrumented Dogs:
HR dropped by up to 40% while blood pressure was not affected. Left ventricular end-diastolic pressure rose. This effect on preload may be explained by prolongation of the filling period due to prolongation of diastolic duration. Renal blood flow was maintained and coronary blood flow decreased by up to 40% most likely as a consequence of a drop in myocardial oxygen demand.

Data set [3] relates to conscious dogs. Put plainly: Heart rate and arterial blood pressure by telemetry in conscious dogs. The class given is in vivo, dog. How it is done: Heart rate (HR) and arterial blood pressure (BP) were measured in conscious dogs using telemetry methodology. They received daily oral doses of 0.3 mg/kg over 5 days. HR measured prior drug administration was reduced from 64.0±6.81 beats per minute (bpm) to 50.5±5.54 bpm on day 5. maximal effect on HR were seen between 1.5 and 3.5 hours post-dosing and HR reached values between 45 and 53 bpm. No effect on arterial BP was seen.

For data set [4], the system named is anesthetized dogs. Put plainly: Cardiovascular and electrocardiographic effects in anesthetized dogs. The class given is in vivo, dog. How it is done: Cardiovascular and Electrocardiographic Effects of Cilobradine (DKAH 3 CL) in Dogs:
The dose of 0.05 mg/kg reduced spontaneous HR by 23% whereas 0.1 mg/kg i.v. reduced HR by 42%. Systolic and diastolic pressure was not affected. The effective refractory times of the sinus and atrioventricular (AV) node increased with 0.05 mg/kg by 31% and 30% respectively.

Data set [5] relates to healthy Beagle dogs. Put plainly: Radiotelemetric pharmacodynamic study, repeated once and twice daily oral administration. The class given is in vivo, dog. The conditions noted are these: for minimum of the first derivative of the left ventricular pressure against time (LVdP/dtmin) / maximum of the first derivative of the left ventricular pressure against time (LVdP/dtmax) / decrease of heart rate: healthy Beagle dogs; for minimum of the first derivative of the left ventricular pressure against time (LVdP/dtmin): from −2700 mmHg/s; for maximum of the first derivative of the left ventricular pressure against time (LVdP/dtmax): increased from 2700 mmHg/s; for decrease of heart rate: 0.3 mg/kg bodyweight oral, 2 mg/ml oral suspension. On the procedure: A Radiotelemetric Study to Evaluate the Pharmacodynamic Effects of Cilobradine HCl 2 Mg/Ml Oral Suspension after Repeated Once and Twice Daily Oral Administration to Healthy Beagle Dogs
Cilobradine HCl 2 mg/ml oral suspension was given once or twice daily at doses of 0.3 mg/kg bodyweight to conscious, healthy Beagle dogs chronically implanted with a telemetry system. Heart rate, systolic blood pressure, diastolic blood pressure, aortic pressure, left ventricular pressure, electrocardiogram (ECG), and body temperature were recorded. Before each treatment sequence all dogs underwent a 24 hour pre-dosing measurement which served as a baseline (control) measurement. After dosing the dogs were left undisturbed for the duration of the study, which lasted 24 hours, with the exception of the second dosing 10-12 hours after the first treatment.

Data set [6] is described as follows: Lipophilicity profile of the active substance. The class given is physicochemical. The settings on record: neutral pH versus acidic pH. The source says:
Usually, EC/HPMC films show a sustained release behavior that is independent of pH. […] This, together with the coating applied, may have led to a slower release.

Setting [7] is: 0.3 mg/kg bodyweight once daily and twice daily in comparison to control.
Where [8] appears, read: 0.3 mg/kg bodyweight once daily.
[9] abbreviates: 0.3 mg/kg bodyweight twice daily.

Regarding `COc1ccc(CCN(C)CCCN2CCc3cc(OC)c(OC)cc3CC2=O)cc1OC` [zatebradine, reference compound], in data set [1], the “effect on the Ih channel” value is “can also be blocked”.

Turning to `COc1ccc(CCN2CCC[C@H](CN3CCc4cc(OC)c(OC)cc4CC3=O)C2)cc1OC` [Cilobradine, (+)-3-[(N-(2-(3,4-dimethoxy-phenyl)ethyl)-piperidin-3-(S)-yl)-methyl]-(7,8-dimethoxy-1,3,4,5-tetrahydro-2H-3-benzazepin-2-on)], the “effect on the Ih channel” value in data set [1] is listed as “can also be blocked”. In addition, in data set [2], the blood pressure result is given as “not affected”, the “decrease of coronary blood flow” value is listed as “up to 40%”, the “drop of HR” value was “up to 40%” and the “left ventricular end-diastolic pressure” value is “rose”. Further, in data set [2], the renal blood flow entry is “maintained”. Further, in data set [3] (daily oral 0.3 mg/kg over 5 days), the “effect on arterial BP” value is listed as “No effect”. Further, the “HR measured prior drug administration on day 5” value in data set [3] (daily oral doses of 0.3 mg/kg over 5 days, reduced from 64.0±6.81 bpm) turned out to be 50.5±5.54 bpm. Moreover, in data set [4] (0.05 mg/kg i.v.), the “increase of effective refractory time of the atrioventricular (AV) node” value came to 30%, the “increase of effective refractory time of the sinus node” value is listed as 31% and the “reduction of spontaneous HR” value stood at 23%. Moreover, the “reduction of spontaneous HR” value in data set [4] (0.1 mg/kg i.v.) was 42%. Besides, in data set [4] (0.05 or 0.1 mg/kg i.v.), the “systolic and diastolic pressure” value is on record as “not affected”.

On to `COc1ccc(CCN2CCC[C@H](CN3CCc4cc(OC)c(OC)cc4CC3=O)C2)cc1OC.Cl` [cilobradine HCl, (+)-3-[(N-(2-(3,4-dimethoxy-phenyl)ethyl)-piperidin-3-(S)-yl)-methyl]-(7,8-dimethoxy-1,3,4,5-tetrahydro-2H-3-benzazepin-2-on hydrochloride)], for which, in data set [5] (setting [7]), the “inotropic effect (FIG. 1)” value was “positive inotropic effect” and the “lusitropic effect (FIG. 2)” value is given as “positive lusitropic effect”. In addition, in data set [5] (setting [8]), the “minimum of the first derivative of the left ventricular pressure against time (LVdP/dtmin)” value is on record as −3000 mmHg/s and the “maximum of the first derivative of the left ventricular pressure against time (LVdP/dtmax)” value was 3000 mmHg/s. Further, the “decrease of heart rate” value in data set [5] (repeated once daily) is given as “approximately 25%”. Moreover, in data set [5] (repeated twice daily), the “decrease of heart rate” value is reported as roughly 30%. Also, in data set [5] (setting [9]), the “minimum of the first derivative of the left ventricular pressure against time (LVdP/dtmin)” value is −3550 mmHg/s and the “maximum of the first derivative of the left ventricular pressure against time (LVdP/dtmax)” value is on record as 3550 mmHg/s. The lipophilicity profile entry in data set [6] was “slightly more lipophilic at neutral pH values”.
